Data reported in patent US11013235B2 (priority 2015, dated 2021).
Where two headings read alike, the source gives them in different places.

How the values were obtained:
Type in all cases: in vivo
[1] = tested on: Nocardia sp; test: Control of Nocardia sp disease in tobacco (N-Nt); conditions: 1 μM spraying every 24 hours for one week, water control 58
Method: (§1) In order to compare the effect of the compounds of formula I to V on the control of diseases in different plants, experiments were conducted in tobacco, tomato and Arabidopsis thaliana plants inoculated with Phytophthora parasitica, Rhizoctonia solani, Alternaria solani, Nocardia sp and Botrytis cinerea, respectively. The compounds were applied by spraying, at a concentration of 1 μM, every 24 hours for one week. The plant mortality rate was determined for the disease produced by Phytophthora parasitica, Rhizoctonia solani and Nocardia sp, while the percentage of leaves with symptoms was determined for the infection by Alternaria solani. In the case of plants affected by Botrytis cinerea, the lesion diameter was measured. […] Each treatment included fifty plants. As control, plants treated with water were studied. The plants of each treatment were previously inoculated with the indicated pathogens, according to different inoculation protocols (Frontiers in Plant Science 3: 268, 1-6, 2012), and later they were treated with the compounds.

[2] = tested on: Botrytis cinerea; test: Control of Botrytis cinerea disease in Arabidopsis (Bc-At); conditions: 1 μM spraying every 24 hours for one week, water control 8.7
Method: as §1

[3] = tested on: Radopholus similis; test: Nematode control, nodules per plant: Radopholus similis; conditions: 1 μM foliar application every 5 days, evaluation 35 days after, control 45
Method: (§2) The solutions of the compounds were prepared in ethanol and diluted in water, up to a concentration of 1 μM for a foliar application. Applications were conducted every 5 days, spraying only the leafs with each compound. Ten plants were used for each treatment and the final evaluation was performed 35 days after, by quantifying the number of nodules per plant.

[4] = tested on: Phytophthora parasitica; test: Control of Phytophthora parasitica disease in tobacco (Pp-Nt); conditions: 1 μM spraying every 24 hours for one week, water control 91
Method: as §1

[5] = tested on: Alternaria solani; test: Control of Alternaria solani disease in tomato (As-SI); conditions: 1 μM spraying every 24 hours for one week, water control 68
Method: as §1

[6] = tested on: Meloidogyne incognita; test: Nematode control, nodules per plant: Meloidogyne incognita; conditions: 1 μM foliar application every 5 days, evaluation 35 days after, control 34
Method: as §2

[7] = tested on: Pratylenchus coffeae; test: Nematode control, nodules per plant: Pratylenchus coffeae; conditions: 1 μM foliar application every 5 days, evaluation 35 days after, control 42
Method: as §2

[8] = tested on: Botrytis cinerea; test: Control of Botrytis cinerea disease in tomato (Bc-SI); conditions: 1 μM spraying every 24 hours for one week, water control 7.4
Method: as §1

[9] = tested on: Rhizoctonia solani; test: Control of Rhizoctonia solani disease in tobacco (Rs-Nt); conditions: 1 μM spraying every 24 hours for one week, water control 87
Method: as §1

[10] = tested on: Candidatus 'Liberibacter asiaticus'; conditions: spraying every 15 days, 12 months after treatment, Citrus sinensis with HLB
[11] = tested on: Rhizoctonia solani; test: Control of Rhizoctonia solani disease in tomato (Rs-SI); conditions: 1 μM spraying every 24 hours for one week, water control 96
Method: as §1

[12] = tested on: Botrytis cinerea; test: Control of Botrytis cinerea disease in tobacco (Bc-Nt); conditions: 1 μM spraying every 24 hours for one week, water control 6.7
Method: as §1

SMILES	N-Nt: percentage of mortality [1]	Bc-At: mean of the diameter of the lesion [2]	Rs: number of nodules per plant [3]	Pp-Nt: percentage of mortality [4]	As-SI: percentage of leaves with the disease symptoms [5]	Mi: number of nodules per plant [6]	Pc: number of nodules per plant [7]	Bc-SI: mean of the diameter of the lesion [8]	Rs-Nt: percentage of mortality [9]	Titers of the bacterium ([10]; 0.001 μM)	Titers of the bacterium ([10]; 0.01 μM)	Titers of the bacterium ([10]; 1 μM)	Titers of the bacterium ([10]; 5 μM)	Titers of the bacterium ([10]; 10 μM)	Rs-SI: percentage of mortality [11]	Bc-Nt: mean of the diameter of the lesion [12]
O=C(CCc1cc2cc3c(C4CCCCC4)coc3cc2oc1=O)NCC(O)CO (centres unmarked) [IC, 3-{6-cyclohexyl-2-oxo-2H-furo[3,2-g]chromen-3-yl}-N-(2,3-dihydroxypropyl)propanamide]	2%	0.5 mm	13	1%	3%	4	22	0.8 mm	4%	432 copies per reaction	9 copies per reaction	0 copies per reaction	43 copies per reaction	9632 copies per reaction	2%	0.9 mm
Cc1c2c(oc(=O)c1CC(=O)NCC(O)CO)C=CC1C(c3ccc4ccccc4c3)=COC21 (centres unmarked) [IIL, N-(2,3-dihydroxypropyl)-2-[13-methyl-5-(naphthalen-2-yl)-11-oxo-3,10-dioxatricyclo[7.4.0.0^{2,6}]trideca-1(9),4,7,12-tetraen-12-yl]acetamide]	0%	1.1 mm	0	0%	7%	0	0	1.6 mm	0%	635 copies per reaction	1 copies per reaction	0 copies per reaction	65 copies per reaction	5478 copies per reaction	0%	2.0 mm
CC(O)C(O)CN1CCC(Oc2ccc(C(=O)N3CCCC3)cc2)CC1 (centres unmarked) [IVJ, 1-(4-{4-[(pyrrolidin-1-yl)carbonyl]phenoxy}piperidin-1-yl)butane-2,3-diol]	1%	1.1 mm	16	1%	1%	2	18	1.6 mm	2%	435 copies per reaction	7 copies per reaction	3 copies per reaction	45 copies per reaction	9547 copies per reaction	3%	2.0 mm
O=C(c1cnc(N2CCN(C3CCCCC3)CC2)nc1)N1CC2CC(O)C(O)CC2C1 (centres unmarked) [IIIE, 2-{[2-(4-cyclohexylpiperazin-1-yl)pyrimidin-5-yl]carbonyl}-octahydro-1H-isoindole-5,6-diol]	0%	0.5 mm	0	0%	7%	0	0	0.8 mm	0%	657 copies per reaction	7 copies per reaction	0 copies per reaction	67 copies per reaction	8653 copies per reaction	0%	0.9 mm
Cc1c(CCC(=O)NCC(O)CO)c(=O)oc2cc3occc3cc12 (centres unmarked) [IM, N-(2,3-dihydroxypropyl)-3-{4-methyl-2-oxo-2H-furo[3,2-g]chromen-3-yl}propanamide]	0%	1.2 mm	0	0%	5%	0	0	0.8 mm	0%	635 copies per reaction	0 copies per reaction	0 copies per reaction	65 copies per reaction	3541 copies per reaction	1%	0.3 mm
CC1=COC2c3c(oc(=O)c(CC(=O)NCC(O)CO)c3C)C=CC12 (centres unmarked) [IIH, N-(2,3-dihydroxypropyl)-2-{5,13-dimethyl-11-oxo-3,10-dioxatricyclo[7.4.0.0^{2,6}]trideca-1(9),4,7,12-tetraen-12-yl}acetamide]	1%	1.5 mm	16	1%	1%	2	18	2.5 mm	2%	756 copies per reaction	0 copies per reaction	1 copies per reaction	76 copies per reaction	2365 copies per reaction	3%	1.5 mm
Cc1c2c(oc(=O)c1CC(=O)NCC(O)CO)C=CC1C(c3ccccc3)=COC21 (centres unmarked) [III, N-(2,3-dihydroxypropyl)-2-{13-methyl-11-oxo-5-phenyl-3,10-dioxatricyclo[7.4.0.0^{2,6}]trideca-1(9),4,7,12-tetraen-12-yl}acetamide]	1%	2.4 mm	2	2%	2%	3	1	0.8 mm	3%	456 copies per reaction	0 copies per reaction	1 copies per reaction	56 copies per reaction	3654 copies per reaction	2%	1.5 mm
O=C(c1ccc(OC2CCN(CC(O)CO)CC2)cc1)N1CCC(c2ccccc2)C1 (centres unmarked) [IVC, 3-(4-{4-[(3-phenylpyrrolidin-1-yl)carbonyl]phenoxy}piperidin-1-yl)propane-1,2-diol]	1%	1.2 mm	14	1%	1%	2	13	0.8 mm	2%	123 copies per reaction	4 copies per reaction	0 copies per reaction	23 copies per reaction	3541 copies per reaction	3%	0.3 mm
